In brackets after ≈: the same amount, converted by molar mass.
Assays:
Format in all cases: functional
Trichophyton tonsurans = assay: Minimum inhibitory concentration against Trichophyton tonsurans (n=18); conditions: Trichophyton tonsurans; for MIC50: read-out: MIC50; for MIC90: read-out: MIC90
Cavia porcellus [1] = organism: Cavia porcellus; assay: Effective dose was measured in guinea pig infected with Microsporum canis on 14th day; conditions: Cavia porcellus; read-out: ED50
Cavia porcellus [2] = organism: Cavia porcellus; assay: Effective dose was measured in guinea pig infected with Microsporum canis on 21st day; conditions: Cavia porcellus; read-out: ED50
Mus musculus = organism: Mus musculus; assay: Effective dose was measured in mice infected with Trichophyton mentagrophytes; conditions: Mus musculus; read-out: ED50
Cavia porcellus [3] = organism: Cavia porcellus; assay: Effective dose was measured in guinea pig infected with Microsporum canis on 7th day; conditions: Cavia porcellus; read-out: ED50
Candida = assay: Minimum inhibitory concentration against Candida species (n=24); conditions: for MIC50: Candida, read-out: MIC50
Aspergillus sp. = assay: Minimum inhibitory concentration against Aspergillus species (n=8); conditions: Aspergillus sp.; for MIC50: read-out: MIC50; for MIC90: read-out: MIC90
[4] = Minimum inhibitory concentration against Microsporum species (n=38); conditions: Microsporum; for MIC50: read-out: MIC50; for MIC90: read-out: MIC90
Trichophyton rubrum = assay: Minimum inhibitory concentration against Trichophyton rubrum (n=14); conditions: Trichophyton rubrum; for MIC50: read-out: MIC50; for MIC90: read-out: MIC90
[5] = Minimum inhibitory concentration against Trichophyton species (n=80); conditions: Trichophyton; for MIC50: read-out: MIC50; for MIC90: read-out: MIC90
Epidermophyton floccosum = assay: Minimum inhibitory concentration against Epidermophyton floccosum (n=12); conditions: Epidermophyton floccosum; for MIC50: read-out: MIC50; for MIC90: read-out: MIC90
Trichophyton benhamiae = assay: Minimum inhibitory concentration against Trichophyton mentagrophytes (n=20); conditions: Trichophyton benhamiae; for MIC50: read-out: MIC50; for MIC90: read-out: MIC90

Row | Compound | MIC50 (Trichophyton tonsurans) [µg/mL] | MIC90 (Trichophyton tonsurans) [µg/mL] | ED50 (Cavia porcellus [1]) [mg/kg] | ED50 (Cavia porcellus [2]) [mg/kg] | ED50 (Mus musculus) [mg/kg] | ED50 (Cavia porcellus [3]) [mg/kg] | MIC90 (Candida) [µg/mL] | MIC50 (Candida) [µg/mL] | MIC50 (Aspergillus sp.) [µg/mL] | MIC90 (Aspergillus sp.) [µg/mL] | MIC50 [4] [µg/mL] | MIC90 [4] [µg/mL] | MIC50 (Trichophyton rubrum) [µg/mL] | MIC90 (Trichophyton rubrum) [µg/mL] | MIC50 [5] [µg/mL] | MIC90 [5] [µg/mL] | MIC50 (Epidermophyton floccosum) [µg/mL] | MIC90 (Epidermophyton floccosum) [µg/mL] | MIC50 (Trichophyton benhamiae) [µg/mL] | MIC90 (Trichophyton benhamiae) [µg/mL]
1 | CCC1C(=O)N(CC)C(=O)N(c2ccc(N3CCN(c4ccc(OC[C@@H]5CO[C@@](Cn6cncn6)(c6ccc(F)cc6F)O5)cc4)CC3)cc2)C1=O (stereo partly drawn) | > 20 | > 20 | 1.94 | 1.94 | 2.86 | 1.18 | > 20 | 0.32 (≈ 0.447 µM) | > 20 | > 20 | 1 (≈ 1.4 µM) | > 20 | 3.2 (≈ 4.47 µM) | > 20 | > 20 | > 20 | 1 (≈ 1.4 µM) | 3.2 (≈ 4.47 µM) | 1 (≈ 1.4 µM) | > 20
2 | CCN1C(=O)N(c2ccc(N3CCN(c4ccc(OC[C@H]5CO[C@](Cn6cncn6)(c6ccc(F)cc6F)O5)cc4)CC3)cc2)C(=O)C(C)(C)C1=O | > 20 | > 20 | > 5 | > 5 | 3.1 | > 5 | > 20 | 0.66 (≈ 0.922 µM) | > 20 | > 20 | 10 (≈ 14 µM) | > 20 | 11.6 (≈ 16.2 µM) | > 20 | > 20 | > 20 | 3.2 (≈ 4.47 µM) | > 20 | 1 (≈ 1.4 µM) | > 20
3 | CCCn1c(=O)n(CC)c(=O)n(-c2ccc(N3CCN(c4ccc(OC[C@H]5OC[C@](Cn6cncn6)(c6ccc(F)cc6F)O5)cc4)CC3)cc2)c1=O | 10 (≈ 13.7 µM) | > 20 | 2.35 | > 2.5 | > 1.25 | 1.25 | > 20 | 3.2 (≈ 4.38 µM) | > 20 | > 20 | 3.2 (≈ 4.38 µM) | > 20 | 3.2 (≈ 4.38 µM) | 10 (≈ 13.7 µM) | 3.2 (≈ 4.38 µM) | > 20 | 1 (≈ 1.37 µM) | 3.2 (≈ 4.38 µM) | 1 (≈ 1.37 µM) | 3.2 (≈ 4.38 µM)
4 | CCN1C(=O)N(c2ccc(N3CCN(c4ccc(OC[C@@H]5CO[C@@](Cn6cncn6)(c6ccc(F)cc6F)O5)cc4)CC3)cc2)C(=O)C(C)(C)C1=O | > 20 | > 20 | 3.28 | 2.35 | > 2.5 | 1.18 | > 20 | 0.32 (≈ 0.447 µM) | > 20 | > 20 | 3.2 (≈ 4.47 µM) | > 20 | 11.6 (≈ 16.2 µM) | > 20 | > 20 | > 20 | 1 (≈ 1.4 µM) | 1 (≈ 1.4 µM) | 1 (≈ 1.4 µM) | > 20
5 | CCN1C(=O)N(c2ccc(N3CCN(c4ccc(OC[C@@H]5OC[C@@](Cn6cncn6)(c6ccc(F)cc6F)O5)cc4)CC3)cc2)C(=O)C(C)(C)C1=O | > 20 | > 20 | > 2.5 | > 2.5 | – | > 2.5 | > 20 | 15 (≈ 21 µM) | > 20 | > 20 | > 20 | > 20 | > 20 | > 20 | > 20 | > 20 | > 20 | > 20 | > 20 | > 20
6 | CC(C)N1CCN(c2ccc(N3CCN(c4ccc(OC[C@@H]5OC[C@@](Cn6cncn6)(c6ccc(F)cc6F)O5)cc4)CC3)cc2)C1=O | 20 (≈ 30.3 µM) | 20 (≈ 30.3 µM) | 2.5 | 2.5 | – | 2.5 | 20 (≈ 30.3 µM) | 20 (≈ 30.3 µM) | 20 (≈ 30.3 µM) | 20 (≈ 30.3 µM) | 2.1 (≈ 3.18 µM) | 20 (≈ 30.3 µM) | 20 (≈ 30.3 µM) | 20 (≈ 30.3 µM) | 20 (≈ 30.3 µM) | 20 (≈ 30.3 µM) | 1 (≈ 1.52 µM) | 20 (≈ 30.3 µM) | 1 (≈ 1.52 µM) | 20 (≈ 30.3 µM)
